Results from US20260021109A1, “PROSTANOID RECEPTOR AGONISTS AS NON-TUBERCULOUS ANTI-MYCOBACTERIAL AGENTS” (priority 2022, published 2026).

Columns and labels:
M. abscessus [1] = experiment: in vitro infection of THP1 monocytic human cell line with M. abscessus; assay type: cell-based; settings: for M. abscessus survival rate: THP1 cells, 48H, untreated control 2.7, p=0.005, FIG. 4A
M. tuberculosis = experiment: in vitro infection of THP1 monocytic human cell line with M. tuberculosis; assay type: cell-based; settings: THP1 cells, untreated control 0.50, p=0.0165, FIG. 4B
M. marinum = M. marinum infection of zebrafish; assay type: in vivo; settings: zebrafish infected by M. marinum; FIG. 4C
M. abscessus [2] = settings: zebrafish, in vivo
M. abscessus [3] = experiment: M. abscessus in liquid culture (absence of THP1 cells); assay type: cell-based; settings: liquid culture medium, no THP1 cells; Treprostinil 50 μM; versus untreated; FIG. 6
[4] = test system: zebrafish homolog of the EP2 receptor (EP2a); experiment: CRISPR EP2a KO zebrafish infected with M. abscessus; assay type: in vivo; settings: M. abscessus infected control and F0 CRISPR EP2a KO zebrafish; FIG. 7
From the text: To explore the mechanism of action of Treprostinil in this context, the zebrafish homolog of the EP2 receptor was knocked out using CRISPR and control and KO zebrafish were infected with M. abscessus. […] This definitively confirms that Treprostinil acts via an EP2-mediated host-directed therapeutic effect.

With CCCCC[C@H](O)CC[C@@H]1[C@H]2Cc3cccc(OCC(=O)O)c3C[C@H]2C[C@H]1O [Treprostinil] the “dose response of killing of M. abscessus” value (M. abscessus [1]; FIG. 5B, THP1 killing of M. abscessus according to legend b39) was “dose response to the effect was also observed”, the “M. abscessus survival rate” value (M. abscessus [1]; 400 nM) was 1.07 and the “M. abscessus survival rate” value (M. abscessus [1]; 1 μM) was 1.24. For the same compound, the “M. tuberculosis survival rate” value (M. tuberculosis; 400 nM) was 0.44, the “M. tuberculosis survival rate” value (M. tuberculosis; 1 μM) was 0.37 and the “effect on M. marinum numbers in zebrafish” value (M. marinum) was “no observable effect”. For the same compound, the “killing of M. abscessus compared with imipenem” value (M. abscessus [2]) was “significantly more effective than imipenem”, the “direct antibiotic effect on M. abscessus growth” value (M. abscessus [3]) was “no difference in growth” and the “Treprostinil rescue in EP2a KO zebrafish” value [4] was “completely abrogated”.
